In patent US4603142A, “Cholesterol lowering method of use” (Wisconsin Alumni Research Foundation, priority 1984, dated 1986):

What was measured:
Assay type in all cases: cell-based
[1] = molecular target: T1, β-hydroxy-β-methylglutaryl-CoA reductase (Homo sapiens, UniProt P04035); experiment: In vitro HMG-CoA reductase activity in isolated hepatocytes of chicken; details: incubation 15 minutes; for β-Hydroxy-β Methylglutaryl-CoA Reductase: means of two replicates
T1 construct: ISOLATED HEPATOCYTES OF CHICKEN; endogenous in cells; host or cells: isolated hepatocytes of chicken
T1 sequence (P04035 1-888): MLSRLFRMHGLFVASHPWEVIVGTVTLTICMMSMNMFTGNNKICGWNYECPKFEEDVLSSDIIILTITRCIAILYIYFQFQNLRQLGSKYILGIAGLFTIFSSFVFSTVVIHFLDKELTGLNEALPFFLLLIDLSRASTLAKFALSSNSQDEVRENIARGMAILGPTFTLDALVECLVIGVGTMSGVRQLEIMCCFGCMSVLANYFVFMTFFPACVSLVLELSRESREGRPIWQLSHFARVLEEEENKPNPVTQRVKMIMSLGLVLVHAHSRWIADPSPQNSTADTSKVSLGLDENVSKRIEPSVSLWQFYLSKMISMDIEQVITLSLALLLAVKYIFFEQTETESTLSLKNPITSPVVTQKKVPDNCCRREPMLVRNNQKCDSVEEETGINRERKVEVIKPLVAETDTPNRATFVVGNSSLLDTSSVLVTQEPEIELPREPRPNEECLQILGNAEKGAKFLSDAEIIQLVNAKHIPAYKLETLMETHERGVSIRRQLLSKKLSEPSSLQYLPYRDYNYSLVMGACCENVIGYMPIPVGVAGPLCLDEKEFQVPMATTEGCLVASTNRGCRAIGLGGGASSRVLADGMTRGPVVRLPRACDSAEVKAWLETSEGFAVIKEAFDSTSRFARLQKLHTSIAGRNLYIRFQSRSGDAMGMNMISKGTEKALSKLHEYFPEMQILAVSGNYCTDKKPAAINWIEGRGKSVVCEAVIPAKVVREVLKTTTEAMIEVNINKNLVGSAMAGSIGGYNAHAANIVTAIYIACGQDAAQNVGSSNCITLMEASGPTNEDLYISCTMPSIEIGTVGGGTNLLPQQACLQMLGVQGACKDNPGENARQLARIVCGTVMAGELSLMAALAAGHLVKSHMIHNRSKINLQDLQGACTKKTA
Excerpt: (§1) These observed effects on lipogensis and cholesterogenesis could be attributed to the chemical constituents of HPBF, but clearly could not be attributed to the water insoluble plant fibers because they were not present in the latter feeding trials. Moreover, these effects were also obtained in vitro using isolated hepatocytes from chickens and rats. […] Proc. 42:1973 (Abstr.)]. Conditions for the in vitro evaluation of the solvent extracts have been described [Qureshi AA et al. (1983): Inhibition of cholesterol and fatty acid biosynthesis in liver enzymes and chicken hepatocytes by polar fractions of garlic, Lipids 18:343-348].
(§2) Cholesterol inhibitor I was re-chromatographed by HPLC and the UV absorption spectrum obtained. Maximum absorption occurred at 292 nm. This purified fraction was used for high resolution mass spectrometric analysis. Several scans were made using ionization temperatures from 90-180 degrees Centigrade to increase the possibility of detecting impurities. The high resolution mass spectrometric analysis and measurements of different peaks gave a molecular ion peak at m/e 424 and main peaks at m/e 385, 205 and 165 corresponding to C29 H44 O2 (molecular formula) C25 H36 O2, C13 H17 O2 and C10 H13 O2 moieties, respectively, which are characteristic fragmentation moieties for d-alpha-tocotrienol. Lemon grass oil is a rich source of d-alpha-tocotrienol. This product and cholesterol inhibitor I at 20 ppm were compared with the petroleum ether soluble fraction of HPBF (20% equivalent HPBF) in a group of older male White Leghorn chickens (Table 3). The results shown on Table 3 confirm those previously recorded for petroleum ether solubles of HPBF and cholestrol inhibitor I. In a final experiment, the effects of cholestrol inhibitor I and lemon grass oil on hepatocyte HMG Co-A reductase and FAS activities were tested. Both components tested in the concentration range 5-100 microgram/ml, produced a concentration-dependent suppression of HMG Co-A reductase and concentration-dependent enhancement of FAS activity (Table 4).
(§3) ^1 Tenweek-old female chickens were fed standard cornsoy diet. They
(§4) were fasted for 48 hrs. and refed 72 hrs. prior to the preparation of
(§5) ^2 Incubation period was 15 minutes. Values represent means of two
(§6) replicates within incubation set.
^3 pmoles of mevalonic acid synthesized per minute per mg of […]

HMG-CoA reductase = molecular target: T2, HMG-CoA reductase (Homo sapiens, UniProt P04035); experiment: HPLC fractions checked in vitro for suppression of HMG Co-A reductase in isolated hepatocytes; parameters: suppress HMG Co-A reductase activity in isolated hepatocytes; endogenous in cells; host or cells: isolated hepatocytes; details: HPLC fractions of petroleum ether solubles
T2 sequence (P04035 1-888): T1 sequence (P04035 1-888)

Fatty Acid Synthetase = experiment: In vitro fatty acid synthetase activity in isolated hepatocytes of chicken; details: incubation 15 minutes; for Fatty Acid Synthetase: means of two replicates
Excerpt: as §1, §2, §3, §4, §5, §6
^4 nmoles of NADPH oxidized per minute per mg of cytosolic fraction.

SMILES: CC(C)=CCC/C(C)=C/CC/C(C)=C/CC[C@]1(C)CCc2c(C)c(O)c(C)c(C)c2O1 [Cholesterol inhibitor I, 2,5,7,8-tetramethyl-2 (4,8, 12-trimethyltrideca-3,7, 11-trienyl)chroman-6-ol]
- β-Hydroxy-β Methylglutaryl-CoA Reductase ([1]; 5 μg/ml): 45 pmoles of mevalonic acid synth
- β-Hydroxy-β Methylglutaryl-CoA Reductase ([1]; 10 μg/ml): 40 pmoles of mevalonic acid synth
- β-Hydroxy-β Methylglutaryl-CoA Reductase ([1]; 15 μg/ml): 31 pmoles of mevalonic acid synth
- β-Hydroxy-β Methylglutaryl-CoA Reductase ([1]; 20 μg/ml): 30 pmoles of mevalonic acid synth
- β-Hydroxy-β Methylglutaryl-CoA Reductase ([1]; 25 μg/ml): 28 pmoles of mevalonic acid synth
- β-Hydroxy-β Methylglutaryl-CoA Reductase ([1]; 50 μg/ml): 22 pmoles of mevalonic acid synth
- β-Hydroxy-β Methylglutaryl-CoA Reductase ([1]; 100 μg/ml): 23 pmoles of mevalonic acid synth
- remaining activity at 5 µg/mL ([1]; 0.25 h, 5 μg/ml, read-out: β-Hydroxy-β Methylglutaryl-CoA Reductase, percentage of control): 87%
- remaining activity at 10 µg/mL ([1]; 0.25 h, 10 μg/ml, read-out: β-Hydroxy-β Methylglutaryl-CoA Reductase, percentage of control): 77%
- remaining activity at 15 µg/mL ([1]; 0.25 h, 15 μg/ml, read-out: β-Hydroxy-β Methylglutaryl-CoA Reductase, percentage of control): 60%
- remaining activity at 20 µg/mL ([1]; 0.25 h, 20 μg/ml, read-out: β-Hydroxy-β Methylglutaryl-CoA Reductase, percentage of control): 57%
- remaining activity at 25 µg/mL ([1]; 0.25 h, 25 μg/ml, read-out: β-Hydroxy-β Methylglutaryl-CoA Reductase, percentage of control): 54%
- remaining activity at 50 µg/mL ([1]; 0.25 h, 50 μg/ml, read-out: β-Hydroxy-β Methylglutaryl-CoA Reductase, percentage of control): 42%
- remaining activity at 100 µg/mL ([1]; 0.25 h, 100 μg/ml, read-out: β-Hydroxy-β Methylglutaryl-CoA Reductase, percentage of control): 44%
- Effect on HMG Co-A reductase in isolated hepatocytes (HMG-CoA reductase): significant inhibition
- Fatty Acid Synthetase, percentage of control (Fatty Acid Synthetase; 5 μg/ml): 122 Percentage of respective contr
- Fatty Acid Synthetase (Fatty Acid Synthetase; 5 μg/ml): 88 nmoles of NADPH oxidized per m
- Fatty Acid Synthetase, percentage of control (Fatty Acid Synthetase; 10 μg/ml): 135 Percentage of respective contr
- Fatty Acid Synthetase (Fatty Acid Synthetase; 10 μg/ml): 97 nmoles of NADPH oxidized per m
- Fatty Acid Synthetase, percentage of control (Fatty Acid Synthetase; 15 μg/ml): 156 Percentage of respective contr
- Fatty Acid Synthetase (Fatty Acid Synthetase; 15 μg/ml): 112 nmoles of NADPH oxidized per m
- Fatty Acid Synthetase, percentage of control (Fatty Acid Synthetase; 20 μg/ml): 175 Percentage of respective contr
- Fatty Acid Synthetase (Fatty Acid Synthetase; 20 μg/ml): 126 nmoles of NADPH oxidized per m
- Fatty Acid Synthetase, percentage of control (Fatty Acid Synthetase; 25 μg/ml): 188 Percentage of respective contr
- Fatty Acid Synthetase (Fatty Acid Synthetase; 25 μg/ml): 135 nmoles of NADPH oxidized per m
- Fatty Acid Synthetase, percentage of control (Fatty Acid Synthetase; 50 μg/ml): 188 Percentage of respective contr
- Fatty Acid Synthetase (Fatty Acid Synthetase; 50 μg/ml): 148 nmoles of NADPH oxidized per m
- Fatty Acid Synthetase, percentage of control (Fatty Acid Synthetase; 100 μg/ml): 214 Percentage of respective contr
- Fatty Acid Synthetase (Fatty Acid Synthetase; 100 μg/ml): 154 nmoles of NADPH oxidized per m
